In PubChem BioAssay (NCI) one finds TGI and GI50 data, which are given here for seven molecules.

Test systems include SR leukemia; TK-10 renal; SK-MEL-28 melanoma; SF-539 CNS; HL-60(TB) leukemia; OVCAR-3 ovarian; HCC-2998 colon; RXF 393 renal; KM12 colon; K-562 leukemia.
Test in all cases: DTP human tumour cell line panel, 48 h

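Dose response: 5 concentrations. Exposure: 48 h. Format: 96-well plates. Endpoint: linear interpolation; highest concentration if not reached. Here, GI50 denotes the concentration required for 50% inhibition of growth. TGI: total growth inhibition.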

With `CCN(CC)c1ccc2c(c1)Nc1cc(=C(C#N)C#N)c3ccccc3c1=N2`, the TGI in the experiment on SR leukemia, with TK-10 renal, with SK-MEL-28 melanoma, with SF-539 CNS, in the experiment on HL-60(TB) leukemia and with OVCAR-3 ovarian was more than 100 µM each time. The concentration for total growth inhibition (TGI) in the experiment with HCC-2998 colon, in the experiment with RXF 393 renal, in the experiment on KM12 colon and with K-562 leukemia was more than 100 µM throughout.
For the molecule `Cc1cc(-c2nnc3n2CCCCC3)c(C)n1-c1ccc(Cl)c(Cl)c1`, the GI50 – broadly, the concentration at which growth is held to half of that of the control – was 11 µM in the experiment with SR leukemia; 20.1 µM with TK-10 renal; 10.7 µM in the experiment with SK-MEL-28 melanoma; 16.6 µM in the experiment with SF-539 CNS; 20.6 µM in the experiment on HL-60(TB) leukemia; 10.2 µM in the experiment with OVCAR-3 ovarian. In addition, the GI50 with HCC-2998 colon was 14 µM; in the experiment with RXF 393 renal, 8.42 µM; in the experiment on KM12 colon, 16.6 µM; with K-562 leukemia it was 5.14 µM. The total growth inhibition concentration (TGI) (commonly the concentration at which net growth stops) in the experiment with SR leukemia came to 45.3 µM; with TK-10 renal it was 65.3 µM; in the experiment on SK-MEL-28 melanoma, 23.2 µM; in the experiment with SF-539 CNS, 32.4 µM; in the experiment on HL-60(TB) leukemia, 61.2 µM; in the experiment on OVCAR-3 ovarian, 23.7 µM. Besides, the concentration for total growth inhibition (TGI) with HCC-2998 colon turned out to be 29.3 µM; in the experiment with RXF 393 renal it was 29.8 µM; in the experiment with KM12 colon, 32 µM; in the experiment on K-562 leukemia, 39.3 µM.
As for `CN1C(=O)C(Cl)(C(Cl)(Cl)S(=O)(=O)O)C(=O)c2ccccc21` (stereo not given), the total growth inhibition concentration (TGI) in the experiment on SR leukemia, in the experiment with TK-10 renal, in the experiment with SK-MEL-28 melanoma, with SF-539 CNS, in the experiment with HL-60(TB) leukemia and in the experiment with OVCAR-3 ovarian was more than 100 µM each time. Moreover, the TGI in the experiment on HCC-2998 colon, in the experiment on RXF 393 renal, in the experiment with KM12 colon and with K-562 leukemia was more than 100 µM each time.
`Cc1cc(N/N=C/c2nc(-c3ccc(Cl)cc3)oc2C)c2cc(Cl)ccc2n1`: the concentration for 50% growth inhibition (GI50) with SR leukemia was 0.344 µM; in the experiment on TK-10 renal, 1.85 µM; in the experiment with SK-MEL-28 melanoma, 1.99 µM; with SF-539 CNS it was 1.88 µM; with HL-60(TB) leukemia, 1.98 µM; in the experiment with OVCAR-3 ovarian, 1.87 µM. For the same molecule, the GI50 in the experiment with HCC-2998 colon is 2.86 µM; in the experiment with RXF 393 renal, 3.57 µM; in the experiment on KM12 colon, 1.97 µM; in the experiment on K-562 leukemia, 0.571 µM. Also, the concentration for total growth inhibition (TGI) in the experiment on SR leukemia is 4.84 µM; in the experiment on TK-10 renal, 3.48 µM; with SK-MEL-28 melanoma, 3.86 µM; with SF-539 CNS, 3.46 µM; in the experiment on HL-60(TB) leukemia, 4.82 µM; with OVCAR-3 ovarian, 3.45 µM. In addition, the TGI with HCC-2998 colon came to 7.32 µM; in the experiment with RXF 393 renal it was 15.8 µM; in the experiment with KM12 colon, 4.6 µM; in the experiment on K-562 leukemia, 2.56 µM.
On to `Cc1ccc(SC(=O)N2C(=S)NC(=NC3CCCCC3)C23CCCCC3)cc1`, for which the concentration for total growth inhibition (TGI) in the experiment on SR leukemia, with TK-10 renal, with SK-MEL-28 melanoma, in the experiment on SF-539 CNS, in the experiment on HL-60(TB) leukemia and in the experiment with OVCAR-3 ovarian was more than 100 µM each time. In addition, the TGI in the experiment with HCC-2998 colon, in the experiment with RXF 393 renal, in the experiment on KM12 colon and with K-562 leukemia was more than 100 µM throughout.
Turning to `COc1ccc(-c2cn[nH]c2-c2cc(OC)c3c(c2)OCCO3)cc1`, the concentration for 50% growth inhibition (GI50) was 0.0473 µM with SR leukemia; 0.457 µM in the experiment with TK-10 renal; 2.12 µM in the experiment with SK-MEL-28 melanoma; 0.124 µM with SF-539 CNS; 0.0815 µM in the experiment with HL-60(TB) leukemia; 0.0423 µM in the experiment with OVCAR-3 ovarian. Also, the GI50 was 0.673 µM in the experiment with HCC-2998 colon, 0.219 µM in the experiment with RXF 393 renal, 0.0502 µM in the experiment on KM12 colon and 0.0391 µM in the experiment on K-562 leukemia. The TGI amounted to 14.2 µM in the experiment with SR leukemia; 48.4 µM with TK-10 renal; 46.3 µM with SK-MEL-28 melanoma; 0.441 µM with SF-539 CNS; 13 µM in the experiment on HL-60(TB) leukemia; 0.3 µM in the experiment on OVCAR-3 ovarian. Besides, the TGI is 20.4 µM with HCC-2998 colon, 2.77 µM with RXF 393 renal, 7.85 µM in the experiment with KM12 colon and more than 100 µM in the experiment on K-562 leukemia.
Turning to `O=C1CCCN1CC#CCN1CCCC1`, the GI50 in the experiment with SR leukemia, with TK-10 renal, in the experiment with SK-MEL-28 melanoma, in the experiment with SF-539 CNS, in the experiment with HL-60(TB) leukemia and in the experiment on OVCAR-3 ovarian was more than 100 µM in each case. Also, the GI50 with HCC-2998 colon, with RXF 393 renal, in the experiment on KM12 colon and in the experiment on K-562 leukemia was more than 100 µM in each case. Besides, the TGI in the experiment on SR leukemia, in the experiment with TK-10 renal, in the experiment on SK-MEL-28 melanoma, with SF-539 CNS, in the experiment on HL-60(TB) leukemia and in the experiment with OVCAR-3 ovarian was more than 100 µM throughout. For the same molecule, the TGI in the experiment on HCC-2998 colon, in the experiment on RXF 393 renal, with KM12 colon and in the experiment on K-562 leukemia was more than 100 µM throughout.
